The numbers were not newly measured in patent US4127517A, “Novel docosapeptides, intermediates therefore and pharmaceutical compositions and methods employing said docosapeptides” (priority 1977, dated 1978), which cites them from elsewhere.

The conditions of data set [1]: injected directly into the brain of the rat.
In data set [2] the test system is brain opiate receptor sites.

With “H-Tyr-Gly-Gly-Phe-Met-OH [methionine enkephalin]”, the analgesic activity entry in data set [1] is “weak analgesic agent of short duration”. Moreover, the “binding to partially purified brain opiate receptor sites” value in data set [2] is “binds stereo-specifically”.
